Values quoted from earlier work, collected in patent US6703036B1, “Stomach-action molluscicides” (priority 1997, dated 2004).

What was measured:
rat = settings: oral administration
[1] = system: golden apple snail, Pomacea canaliculata; settings: used on its own at 100 ppm, aqueous solution on the water surface

Sorbitan monostearate
LD50 (rat): 31000 mg/kg

CCCCCCCCCCCCOS(=O)(=O)[O-].[Na+] [Sodium dodecyl sulphate]
molluscicidal activity [1]: effective molluscicide

Sorbitan monolaurate
LD50 (rat): 33600 mg/kg
